The values below come from patent publication US20230212142A9, “Substituted 5-Cyclopropyl-1H-pyrazole-3-yl-amine Derivatives as Selective CDK12/13 Inhibitors” (Aurigene Discovery Technologies Limited, priority 2019, published 2023).

Assay [1] addresses T1, CDK7 (Homo sapiens, UniProt P50613). Put plainly: CDK7 target occupancy in Jurkat cells. It is filed as cell-based. Also noted: endogenous in cells; host or cells: Jurkat.
Target sequence in this assay (P50613 2-346 limits assumed): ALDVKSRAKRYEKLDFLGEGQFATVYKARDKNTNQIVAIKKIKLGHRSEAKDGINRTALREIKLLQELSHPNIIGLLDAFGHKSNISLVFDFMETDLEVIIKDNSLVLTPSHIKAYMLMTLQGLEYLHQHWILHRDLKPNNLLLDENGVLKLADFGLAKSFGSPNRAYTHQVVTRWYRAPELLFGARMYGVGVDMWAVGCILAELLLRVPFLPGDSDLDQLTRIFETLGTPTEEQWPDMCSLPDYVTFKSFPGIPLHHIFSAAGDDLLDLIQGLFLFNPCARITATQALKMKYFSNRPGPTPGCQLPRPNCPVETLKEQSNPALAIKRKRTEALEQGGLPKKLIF
Target sequence in this assay (P51946 whole entry partner): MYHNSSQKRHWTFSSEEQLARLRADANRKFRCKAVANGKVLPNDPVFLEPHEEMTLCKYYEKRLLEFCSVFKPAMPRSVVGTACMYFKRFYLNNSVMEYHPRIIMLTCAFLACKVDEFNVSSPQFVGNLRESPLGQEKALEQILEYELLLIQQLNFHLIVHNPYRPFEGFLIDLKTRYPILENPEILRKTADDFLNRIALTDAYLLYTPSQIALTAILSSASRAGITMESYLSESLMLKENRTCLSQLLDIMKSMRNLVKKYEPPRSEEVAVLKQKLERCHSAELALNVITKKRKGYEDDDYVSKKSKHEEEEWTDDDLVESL
Target sequence in this assay (P51948 whole entry partner): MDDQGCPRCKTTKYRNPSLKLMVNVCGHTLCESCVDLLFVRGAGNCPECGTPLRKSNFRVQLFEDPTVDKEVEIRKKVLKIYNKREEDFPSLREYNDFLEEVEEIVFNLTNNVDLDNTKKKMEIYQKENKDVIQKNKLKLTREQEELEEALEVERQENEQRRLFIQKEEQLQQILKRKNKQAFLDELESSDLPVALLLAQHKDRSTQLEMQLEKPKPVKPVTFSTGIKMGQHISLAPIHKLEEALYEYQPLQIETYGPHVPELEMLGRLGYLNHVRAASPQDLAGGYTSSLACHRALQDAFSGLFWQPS
Assay [2] has as its target T2, CDK12 (Homo sapiens, UniProt Q9NYV4). Put plainly: CDK12 plate based target engagement assay in Jurkat cells. It is filed as cell-based. Also noted: endogenous in cells; host or cells: Jurkat. The settings on record: 6 hours treatment, Bio-THZ531 competition. On the procedure:
Jurkat cells were treated with varying concentrations of the compound for 6 hours. The DMSO concentration was maintained at 0.1%. Cells were harvested and lysed. 200 μg of the lysate was incubated with 1 μM Bio-THZ531 in the presence of 1mM DTT and incubated on a rocker at 4° C. overnight. 100 μL of this sample was added to pre-washed streptavidin coated plates and incubated at room temperature on a rocker for 2 hours. The plates were washed and incubated with CDK12 antibody for overnight at 4° C. Next day the plate was washed and incubated for 2 hours with HRP labelled anti rabbit secondary antibody. Bio-THZ531 bound CDK12 was determined using TMB substrate. The plates were read using the M3 spectrophotometer at […]. Percentage CDK12 occupancy with the test compound was calculated over untreated control. Occupancy50 was calculated by fitting the dose response data to sigmoidal curve fitting equation using GraphPad Prism software V5.

Assay [3] has as its target T2, CDK12. Put plainly: Biochemical assay for CDK12 (kinase-tagged phage / qPCR competition binding). Also noted: host or cells: E. coli BL21-derived host (T7 phage display) or HEK-293. How it is done: Kinase-tagged T7 phage strains were grown in parallel in 24-well blocks in an E. coli host derived from the BL21 strain. E. coli were grown to log-phase and infected with T7 phage from a frozen stock (multiplicity of infection=0.4) and incubated with shaking at 32° C. until lysis (90-150 minutes). The lysates were centrifuged (6,000×g) and filtered (0.2 μm) to remove cell debris. The remaining kinases were produced in HEK-293 cells and subsequently tagged with DNA for qPCR detection. Streptavidin-coated magnetic beads were treated with biotinylated small molecule ligands for 30 minutes at room temperature to generate affinity resins for kinase assays. The liganded beads were blocked with excess biotin and washed with blocking buffer (SeaBlock (Pierce), 1% BSA, 0.05% Tween 20, 1 mM
DTT) to remove unbound ligand and to reduce non-specific phage binding. Binding reactions were assembled by combining kinases, liganded affinity beads, and test compounds in lx binding buffer (20% SeaBlock, 0.17×PBS, 0.05% Tween 20, 6 mM DTT). Test compounds were prepared as 40× stocks in 100% DMSO and directly diluted into the assay. All reactions were performed in polypropylene 384-well plates in a final volume of 0.02 ml. The assay plates were incubated at room temperature with shaking for 1 hour and the affinity beads were washed with wash buffer (1 PBS, 0.05% Tween 20). The beads were then re-suspended in elution buffer (1× PBS, 0.05% Tween 20, 0.5 μM non-biotinylated affinity ligand) and incubated at room temperature with shaking for 30 minutes. The kinase concentration in the eluates was measured by qPCR.
Target sequence in this assay (Q9NYV4 whole entry, species assumed): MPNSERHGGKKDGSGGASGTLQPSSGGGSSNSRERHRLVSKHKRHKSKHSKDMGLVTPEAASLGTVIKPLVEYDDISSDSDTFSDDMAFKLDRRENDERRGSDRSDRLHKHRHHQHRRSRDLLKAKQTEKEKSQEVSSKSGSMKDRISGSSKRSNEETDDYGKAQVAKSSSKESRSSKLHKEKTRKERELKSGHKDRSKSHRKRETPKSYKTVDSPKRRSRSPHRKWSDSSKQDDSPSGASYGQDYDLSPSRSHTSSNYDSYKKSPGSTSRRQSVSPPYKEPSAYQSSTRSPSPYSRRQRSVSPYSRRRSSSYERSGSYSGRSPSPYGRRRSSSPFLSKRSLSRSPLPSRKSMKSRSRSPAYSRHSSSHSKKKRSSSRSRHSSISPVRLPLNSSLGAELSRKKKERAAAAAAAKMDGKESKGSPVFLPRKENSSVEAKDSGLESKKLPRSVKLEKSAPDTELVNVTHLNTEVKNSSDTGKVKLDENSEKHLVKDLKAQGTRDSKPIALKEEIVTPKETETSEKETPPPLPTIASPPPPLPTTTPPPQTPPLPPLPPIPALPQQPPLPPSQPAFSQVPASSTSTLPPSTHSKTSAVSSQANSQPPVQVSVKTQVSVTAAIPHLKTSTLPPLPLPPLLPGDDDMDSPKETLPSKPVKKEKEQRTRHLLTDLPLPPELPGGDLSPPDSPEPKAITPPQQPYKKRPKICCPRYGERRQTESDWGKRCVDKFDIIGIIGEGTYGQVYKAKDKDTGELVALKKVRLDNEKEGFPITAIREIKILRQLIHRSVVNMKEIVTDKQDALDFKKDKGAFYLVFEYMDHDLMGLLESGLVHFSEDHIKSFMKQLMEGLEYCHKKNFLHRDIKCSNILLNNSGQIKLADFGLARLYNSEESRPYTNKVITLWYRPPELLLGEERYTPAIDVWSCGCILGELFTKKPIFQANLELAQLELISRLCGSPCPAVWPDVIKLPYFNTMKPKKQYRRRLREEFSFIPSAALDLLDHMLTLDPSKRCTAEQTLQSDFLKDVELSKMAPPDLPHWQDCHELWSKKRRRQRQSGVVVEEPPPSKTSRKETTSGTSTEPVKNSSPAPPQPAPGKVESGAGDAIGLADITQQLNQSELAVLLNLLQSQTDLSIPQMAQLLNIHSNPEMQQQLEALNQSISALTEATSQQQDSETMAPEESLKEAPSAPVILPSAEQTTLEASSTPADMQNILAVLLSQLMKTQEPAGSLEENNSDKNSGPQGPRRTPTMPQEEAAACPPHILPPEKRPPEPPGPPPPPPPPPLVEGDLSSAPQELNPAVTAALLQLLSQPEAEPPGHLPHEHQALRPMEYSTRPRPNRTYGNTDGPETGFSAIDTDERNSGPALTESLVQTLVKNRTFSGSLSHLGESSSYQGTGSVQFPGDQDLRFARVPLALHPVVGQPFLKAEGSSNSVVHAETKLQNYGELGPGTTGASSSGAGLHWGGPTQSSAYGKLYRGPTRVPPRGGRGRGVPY

Assay [4] addresses T1, CDK7. Put plainly: Biochemical assay for CDK7 (LANCE TR-FRET, ULight-MBP phosphorylation). The note with it: CDK7 10 nM, ATP 1 mM/100 μM, 60 min pre-incubation. On the procedure:
The inhibitory activity of the test compounds was assessed by the LANCE TR-FRET assay, which detects the ATP-dependent phosphorylation of an ULight-myelin basic protein (MBP) substrate peptide (100 nM) by CDK7 (10 nM). Briefly, the enzyme reaction was run in reaction buffer (20 mM HEPES (pH 7.5), 10 mM MgCl2, 0.01% Triton x, 100 μM Sodium Orthovanadate, 1 mM DTT). The assay was performed in 384-well plate. The end concentration of the ATP substrate was 1 mM/100 μM, and that of the ULight-MBP substrate peptide was 100 nM, and of CDK7 was 10 nM. Pre-incubation of the compound and enzyme was performed for 60 min at room temperature. After 60 min incubation at room temperature, the reaction was terminated by the addition of 40 mM EDTA and 1 nM Eu-labeled anti-phospho-MBP-binding protein antibody in the buffer. Time-resolved fluorescence (excitation, 320 nm; emission donor, 615 nm; emission acceptor, 665 nm) was monitored by using 2030 multilabel reader Victor5 (PerkinElmer). The readout was calculated as (acceptor counts/donor counts)×1000. The IC50 values were derived by fitting a sigmoidal dose-response curve to a plot of assay readout over inhibitor concentration. All fits were computed with the program Prism 5.03 (Graph Pad Software, San Diego, Calif.).
Target sequence in this assay (P50613 whole entry, species assumed): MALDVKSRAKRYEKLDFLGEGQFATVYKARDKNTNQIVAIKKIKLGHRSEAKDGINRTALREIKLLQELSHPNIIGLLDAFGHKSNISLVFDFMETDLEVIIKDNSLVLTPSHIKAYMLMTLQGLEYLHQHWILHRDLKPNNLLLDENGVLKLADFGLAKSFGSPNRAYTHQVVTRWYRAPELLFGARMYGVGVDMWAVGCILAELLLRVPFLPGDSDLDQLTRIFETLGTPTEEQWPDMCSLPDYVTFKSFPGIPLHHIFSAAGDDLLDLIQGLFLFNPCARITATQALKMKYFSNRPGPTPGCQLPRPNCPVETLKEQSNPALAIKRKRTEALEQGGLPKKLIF
Target sequence in this assay (P51946 whole entry partner, species assumed): as the sequence (P51946 whole entry partner) above
Target sequence in this assay (P51948 whole entry partner, species assumed): as the sequence (P51948 whole entry partner) above

The target of another assay is CDK13 (Homo sapiens, UniProt Q14004). Put plainly: Biochemical assay for CDK13 (LanthaScreen Eu Kinase Binding Assay). The settings on record: kinase tracer 236 100 nM, CDK13 5 nM. How it is done:
LanthaScreen Eu Kinase Binding Assays are based on the binding and displacement of Alexa Fluor 647-labeled, ATP-competitive kinase inhibitor scaffold (kinase tracer) to the kinase of interest. Binding of the kinase tracer 236 (100 nM) to the CDK13 (5 nM) kinase is detected using a europium-labelled anti- GST tag antibody (2 nM), which binds to the kinase. Simultaneous binding of the tracer and antibody to the kinase results in a high degree of FRET (fluorescence resonance energy transfer) from the europium (Eu) donor fluorophore to the Alexa Fluor™ 647 acceptor fluorophore on the kinase tracer. Binding of an inhibitor to the kinase competes for binding with the tracer, resulting in a loss of FRET signal.

SMILES strings stand for the structures. pIC50, pKd: −log10 of the molar value.

Chain of CDK13 (Q14004 whole entry, species assumed): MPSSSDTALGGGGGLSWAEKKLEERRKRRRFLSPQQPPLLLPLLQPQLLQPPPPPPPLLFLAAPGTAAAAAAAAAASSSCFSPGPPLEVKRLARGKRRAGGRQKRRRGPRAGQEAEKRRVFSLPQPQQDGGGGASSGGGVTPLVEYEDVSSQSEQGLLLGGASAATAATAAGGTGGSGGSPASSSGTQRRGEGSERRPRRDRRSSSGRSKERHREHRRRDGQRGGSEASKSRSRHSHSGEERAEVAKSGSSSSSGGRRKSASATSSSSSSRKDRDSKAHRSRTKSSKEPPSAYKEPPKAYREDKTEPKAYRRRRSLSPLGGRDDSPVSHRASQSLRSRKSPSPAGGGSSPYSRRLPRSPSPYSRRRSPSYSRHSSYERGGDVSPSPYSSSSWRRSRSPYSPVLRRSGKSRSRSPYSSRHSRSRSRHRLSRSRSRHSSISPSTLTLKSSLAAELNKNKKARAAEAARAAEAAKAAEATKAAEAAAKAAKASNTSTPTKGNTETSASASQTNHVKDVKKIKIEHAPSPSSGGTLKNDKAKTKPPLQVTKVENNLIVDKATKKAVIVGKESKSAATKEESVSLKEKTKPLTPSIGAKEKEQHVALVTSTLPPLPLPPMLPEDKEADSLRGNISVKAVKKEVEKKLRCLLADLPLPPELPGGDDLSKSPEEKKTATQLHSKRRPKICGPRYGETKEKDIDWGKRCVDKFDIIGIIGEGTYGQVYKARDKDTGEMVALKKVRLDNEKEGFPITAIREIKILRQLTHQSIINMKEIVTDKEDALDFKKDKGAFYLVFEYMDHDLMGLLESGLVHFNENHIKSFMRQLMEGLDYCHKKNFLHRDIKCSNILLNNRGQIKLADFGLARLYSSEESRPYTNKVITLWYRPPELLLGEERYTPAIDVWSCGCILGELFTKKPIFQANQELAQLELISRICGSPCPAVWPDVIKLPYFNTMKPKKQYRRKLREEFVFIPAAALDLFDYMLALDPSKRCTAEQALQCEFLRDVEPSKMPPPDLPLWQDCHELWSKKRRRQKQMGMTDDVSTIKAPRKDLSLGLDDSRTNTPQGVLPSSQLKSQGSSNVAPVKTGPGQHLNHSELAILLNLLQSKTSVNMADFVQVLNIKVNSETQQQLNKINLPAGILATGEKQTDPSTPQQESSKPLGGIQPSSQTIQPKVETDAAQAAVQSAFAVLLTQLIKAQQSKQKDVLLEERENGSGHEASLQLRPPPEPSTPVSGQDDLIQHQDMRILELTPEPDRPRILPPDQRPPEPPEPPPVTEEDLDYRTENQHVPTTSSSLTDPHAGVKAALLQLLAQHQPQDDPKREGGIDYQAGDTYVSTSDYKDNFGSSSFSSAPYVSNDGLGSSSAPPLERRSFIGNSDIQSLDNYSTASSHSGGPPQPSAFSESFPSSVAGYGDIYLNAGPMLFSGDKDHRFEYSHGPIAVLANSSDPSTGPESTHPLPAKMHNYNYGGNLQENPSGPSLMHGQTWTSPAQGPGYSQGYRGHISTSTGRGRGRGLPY
Chain of CDK13 (O75909 whole entry partner, species assumed): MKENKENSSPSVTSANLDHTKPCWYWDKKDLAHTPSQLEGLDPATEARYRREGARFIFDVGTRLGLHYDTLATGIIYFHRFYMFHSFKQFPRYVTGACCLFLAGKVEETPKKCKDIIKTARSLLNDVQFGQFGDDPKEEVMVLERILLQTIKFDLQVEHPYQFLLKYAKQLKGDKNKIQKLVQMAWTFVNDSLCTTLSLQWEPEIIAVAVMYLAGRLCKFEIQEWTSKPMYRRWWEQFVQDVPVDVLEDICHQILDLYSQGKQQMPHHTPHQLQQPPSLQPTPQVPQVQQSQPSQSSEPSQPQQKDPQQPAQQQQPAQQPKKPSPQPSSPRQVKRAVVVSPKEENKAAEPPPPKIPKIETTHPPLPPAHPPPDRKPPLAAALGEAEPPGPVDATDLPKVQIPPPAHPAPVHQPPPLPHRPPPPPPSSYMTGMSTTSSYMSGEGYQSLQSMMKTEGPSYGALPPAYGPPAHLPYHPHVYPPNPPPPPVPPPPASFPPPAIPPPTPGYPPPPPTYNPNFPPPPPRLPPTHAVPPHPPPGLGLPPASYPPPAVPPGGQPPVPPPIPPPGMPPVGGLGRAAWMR

On to `C=CC(=O)NCc1ccc(-c2ccc([C@H](C)C(=O)Nc3cc(C4CC4)[nH]n3)cc2)cn1` [Compound 8, (S)-N-((5-(4-(1-((5-cyclopropyl-1H-pyrazol-3-yl)amino)-1-oxopropan-2-yl)phenyl)pyridin-2-yl)methyl)acrylamide], for which the “Jurkat Cells, CDK7 Target Occ50” value at CDK7 [1] was >>2 μM. Besides, the “Jurkat Cells, CDK12 Target Occ50” value at CDK12 [2] was determined as 0.022 µM. On CDK12 [3], this molecule gave a negative-log Kd (pKd) of more than 7.30. Further, the negative-log IC50 (pIC50) against CDK7 [4] is 5.27; on CDK13, 8.42.
The molecule `CC(C(=O)Nc1cc(C2CC2)[nH]n1)c1ccc(-c2ccc(CNC(=O)/C=C/CN3CCOCC3)cc2)cc1` (centres unmarked) [Compound 15, (E)-N-((4′-(1-((5-cyclopropyl-1H-pyrazol-3-yl)amino)-1-oxopropan-2-yl)-[1,1′-biphenyl]-4-yl)methyl)-4-morpholinobut-2-enamide] gave a pKd on CDK12 [3] of more than 7.30. The pIC50 against CDK7 [4] was 5.44; at CDK13 it was 6.59.
In turn, `C=CC(=O)NC1(c2ccc(-c3ccc([C@H](C)C(=O)Nc4cc(C5CC5)[nH]n4)cc3)cn2)CC1` [Compound 18, (S)-N-(1-(5-(4-(1-((5-cyclopropyl-1H-pyrazol-3-yl)amino)-1-oxopropan-2-yl)phenyl)pyridin-2-yl)cyclopropyl)acrylamide] had a pKd on CDK12 [3] of more than 7.30. In addition, the pIC50 was 5.26 at CDK7 [4] and 6.92 at CDK13.
The molecule `C=CC(=O)NC(C)c1ccc(-c2ccc([C@H](C)C(=O)Nc3cc(C4CC4)[nH]n3)cc2)cn1` (stereo partly drawn) [Compound 20, N-(1-(5-(4-((S)-1-((5-cyclopropyl-1H-pyrazol-3-yl)amino)-1-oxopropan-2-yl)phenyl)pyridin-2-yl)ethyl)acrylamide] showed a pKd on CDK12 [3] of more than 7.30. Besides, the pIC50 on CDK7 [4] was 5.54; at CDK13, 7.44.
The molecule `C=CC(=O)NCc1ncc(-c2ccc([C@H](C)C(=O)Nc3cc(C4CC4)[nH]n3)cc2)cc1F` [Compound 21, (S)-N-((5-(4-(1-((5-cyclopropyl-1H-pyrazol-3-yl)amino)-1-oxopropan-2-yl)phenyl)-3-fluoropyridin-2-yl)methyl)acrylamide] gave a pKd on CDK12 [3] of more than 7.30. Besides, the results for the pIC50 against CDK7 [4] and at CDK13 were 5.88 and 7.06, respectively.
Taken in the same sequence, the figures for `C=CC(=O)NCc1ccc(-c2ccc(C(C)C(=O)Nc3cc(C4CC4)[nH]n3)cc2)nc1` (centres unmarked) [Compound 22, N-((6-(4-(1-((5-cyclopropyl-1H-pyrazol-3-yl)amino)-1-oxopropan-2-yl)phenyl)pyridin-3-yl)methyl)acrylamide] were more than 7.30, 5.28 and 7.68.
On to `C=CC(=O)NCc1ccc(-c2cccc(C(C)C(=O)Nc3cc(C4CC4)[nH]n3)c2)cn1` (centres unmarked) [Compound A], for which, on CDK7 [1], the “Jurkat Cells, CDK7 Target Occ50” value came out at 0.61 µM. In addition, at CDK7 [1] (printed in brackets beside the CDK7 Occ50), the “Fold CDK7 Target Occ50 over CDK12 Target Occ50” value is 2 ×. For the same molecule, the Jurkat Cells, CDK12 Target Occ50 on CDK12 [2] was 0.23 µM.
